Patent publication US20080249081A1, “COMPOUNDS FOR THE TREATMENT OF PAIN AND SCREENING METHODS THEREFOR” (priority 2006, published 2008)

Experiments:
[1] = target: T1, human MrgX2 receptor (Homo sapiens, UniProt Q96LB1); assay: Receptor Selection and Amplification Technology (R-SAT) functional assay, transfected NIH3T3 cells; type: cell-based; details: for Human-MrgX2 Eff(%): percent maximal activation relative to STIA
T1 construct: expressed in transfected cells; host or cells: NIH3T3
T1 sequence (Q96LB1 1-330): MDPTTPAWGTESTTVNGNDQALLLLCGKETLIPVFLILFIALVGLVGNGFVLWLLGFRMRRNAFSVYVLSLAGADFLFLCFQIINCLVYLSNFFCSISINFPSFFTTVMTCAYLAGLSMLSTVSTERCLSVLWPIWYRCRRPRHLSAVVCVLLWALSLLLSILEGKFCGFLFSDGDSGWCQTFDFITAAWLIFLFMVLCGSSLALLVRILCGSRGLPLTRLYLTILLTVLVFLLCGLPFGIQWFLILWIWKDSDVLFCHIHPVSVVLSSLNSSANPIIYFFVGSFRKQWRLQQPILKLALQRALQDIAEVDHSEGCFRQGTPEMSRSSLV
Procedure: (§1) The functional receptor assay, Receptor Selection and Amplification Technology (R-SAT), was used to investigate the pharmacological properties of test compounds on MRGX1 or MRGX2 receptors. R-SAT is disclosed in U.S. Pat. Nos. 5,707,798, 5,912,132, and 5,955,281, each of which is incorporated by reference herein in its entirety, including any drawings.
(§2) Briefly, NIH3T3 cells were grown in 96-well tissue culture plates to 70-80% confluence. Cells were transfected for 16-20 h with plasmid DNAs using Polyfect (Qiagen Inc.) and the manufacturer's protocols. R-SATs were generally performed with 4 ng/well of receptor and 20 ng/well of β-galactosidase plasmid DNA. The human MrgX1, simian MrgX1, human MrgX2 and simian MrgX2 receptor genes were amplified by PCR from genomic DNA using oligodeoxynucleotide primers as described in U.S. patent application Ser. No. 11/359,209, which is incorporated by reference herein in its entirety, including any drawings. For large-scale transfections, cells were transfected for 16-20 h, then trypsinized and frozen in DMSO. Frozen cells were later thawed, plated at ˜10,000 cells per well of a 96 half-area well plate that contained test compound. With both methods, cells were then grown in a humidified atmosphere with 5% ambient CO2 for five days. The medium was then removed from the plates and marker gene activity was measured by the addition of the β-galactosidase substrate o-nitrophenyl β-D-galactopyranoside (ONPG, in PBS with 0.5% NP-40). The resulting […] reaction was measured in a spectrophotometric plate reader (Titertek Inc.) at 420 nm. All data were analyzed using the computer program XLFit (IDBSm). Efficacy is defined as the percent maximal activation compared to activation by a control compound (BAM22 in the case of human or simian MRGX1, STIA or Cortistatin-14 in the case of human or simian MRGX2). pEC50 is the negative of log(EC50), where EC50 is the calculated molar concentration of test compound that produces 50% of maximum activation.
(§3) Efficacy is reported relative to the ligands Bam22 for MrgX1 and STIA for MrgX2.

[2] = target: simian MrgX1 receptor (Macaca mulatta, UniProt A0A5F7ZSN8); assay: as above; type: cell-based, rhesus monkey; details: percent maximal activation relative to Bam22, read-out: Monkey-MrgX1 Eff(%)
Procedure: as §1, §2, §3

[3] = target: T2, simian MrgX2 receptor (Macaca mulatta, UniProt Q4QXU5); assay: as above; type: cell-based, rhesus monkey; details: for Monkey-MrgX2 Eff(%): percent maximal activation relative to STIA
T2 construct: expressed in transfected cells; host or cells: NIH3T3
Procedure: as §1, §2, §3

[4] = target: T3, human MrgX1 receptor (Homo sapiens, UniProt Q96LB2); assay: Intracellular calcium mobilization (Fura-2) in transfected cells; type: cell-based; parameters: expressed in transfected cells; details: for MrgX1 pEC50: human MrgX1; for MrgX1 Eff %: normalized to response to BAM22 (100%)
Procedure: 1. CHO-K1 cells transfected with human MrgX1, simian MrgX1, human MrgX2 and simian MrgX2 receptors or a control receptor at a density 1-3×10^6 cells/mL were washed with phosphate-buffered saline.
2. Cells were loaded with 2 μM Fura-2 and analyzed with respect to the rise in intracellular calcium in the presence or absence of varying concentration of test compound.
3. The response was compared to that elicited by the application of the standard reference ligands BAM22 or Cortistatin-14 at 100 nM.
4. Intracellular free calcium concentrations were calculated using the formula:
[formula] • where Kd for Fura-2 is 224 nM, Fmax is the fluorescence in the presence of 0.04% Triton-X100 and Fmin is the fluorescence obtained after the addition of 5 mM EGTA in 30 mM Tris-HCl, pH7.4.

[5] = target: T3, human MrgX1 receptor; assay: Receptor Selection and Amplification Technology (R-SAT) functional assay, transfected NIH3T3 cells; type: cell-based; parameters: expressed in transfected cells; host or cells: NIH3T3; details: for EC50 / Human-MrgX1 pEC50: pEC50 = negative log of molar EC50; for Human-MrgX1 Eff(%): percent maximal activation relative to Bam22
Procedure: as §1, §2, §3

Chain of simian MrgX1 receptor (A0A5F7ZSN8 1-322): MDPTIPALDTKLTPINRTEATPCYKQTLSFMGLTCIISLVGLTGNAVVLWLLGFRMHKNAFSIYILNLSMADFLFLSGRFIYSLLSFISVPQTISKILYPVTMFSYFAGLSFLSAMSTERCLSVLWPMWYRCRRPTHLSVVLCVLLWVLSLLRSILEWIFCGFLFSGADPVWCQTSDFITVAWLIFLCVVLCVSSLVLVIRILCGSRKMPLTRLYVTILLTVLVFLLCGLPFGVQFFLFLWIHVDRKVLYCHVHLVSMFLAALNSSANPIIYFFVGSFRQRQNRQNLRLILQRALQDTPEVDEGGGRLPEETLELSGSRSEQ
T2 sequence (Q4QXU5 whole entry): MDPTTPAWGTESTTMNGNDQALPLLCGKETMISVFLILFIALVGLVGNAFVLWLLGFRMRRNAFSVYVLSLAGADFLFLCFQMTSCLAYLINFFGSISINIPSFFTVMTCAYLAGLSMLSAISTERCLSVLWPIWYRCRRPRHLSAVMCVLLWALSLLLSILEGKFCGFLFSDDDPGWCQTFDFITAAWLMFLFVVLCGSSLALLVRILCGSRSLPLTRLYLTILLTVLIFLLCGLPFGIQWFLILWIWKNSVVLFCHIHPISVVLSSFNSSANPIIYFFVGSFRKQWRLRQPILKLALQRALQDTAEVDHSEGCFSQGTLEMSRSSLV
T3 sequence (Q96LB2 whole entry): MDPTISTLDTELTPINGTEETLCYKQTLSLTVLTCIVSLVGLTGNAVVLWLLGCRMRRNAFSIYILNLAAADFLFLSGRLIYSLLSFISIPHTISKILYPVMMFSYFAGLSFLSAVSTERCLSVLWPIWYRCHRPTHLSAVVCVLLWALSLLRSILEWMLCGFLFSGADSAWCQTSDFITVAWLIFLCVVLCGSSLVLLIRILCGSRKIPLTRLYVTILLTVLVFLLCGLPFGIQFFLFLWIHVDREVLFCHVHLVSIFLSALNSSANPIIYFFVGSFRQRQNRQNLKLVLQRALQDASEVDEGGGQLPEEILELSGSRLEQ

Row | Human-MrgX2 pEC50 [1] | Human-MrgX2 Eff(%) [1] | Emax [2] | Monkey-MrgX2 pEC50 [3] | Monkey-MrgX2 Eff(%) [3] | MrgX1 pEC50 [4] | MrgX1 Eff % [4] | EC50 [5] | Human-MrgX1 Eff(%) [5] | Human-MrgX1 pEC50 [5] | SMILES
1 | nr | −1% | 148% | <4.5 | 25% | 6.6 | 88% | 1000 nM | 146% | – | N=C(N)NCCC[C@@H](C(N)=O)n1c(-c2cccc(Oc3ccccc3)c2)nc2cc(C(=O)N3CCN(c4ccc(F)cc4)CC3)ccc21 [Compound 1, (α^1R)-α-[3-[(aminoiminomethyl)amino]propyl]-5-[[4-(4-fluorophenyl)-1-piperazinyl]carbonyl]-2-(3-phenoxyphenyl)-1H-benzimidazole-1-acetamide]
2 | nr | 17% | 316% | – | 22% | 7.6 | 92% | 631 nM | 220% | – | Cc1cccc(N2CCN(C(=O)c3ccc4c(c3)nc(-c3cccc(Oc5ccccc5)c3)n4[C@@H](CCCNC(=N)N)C(N)=O)CC2C)c1 (stereo partly drawn) [Compound 2, (α^1R)-α-[3-[(aminoiminomethyl)amino]propyl]-5-[[3-methyl-4-(3-methylphenyl)-1-piperazinyl]carbonyl]-2-(3-phenoxyphenyl)-1H-benzimidazole-1-acetamide]
3 | nr | 4% | 160% | – | 4% | 6.4 | 106% | 158 nM | 176% | – | N=C(N)NCCC[C@@H](C(N)=O)n1c(-c2cccc(Oc3ccccc3)c2)nc2cc(C(=O)NCCc3ccccn3)ccc21 [Compound 3, (α^1R)-α-[3-[(aminoiminomethyl)amino]propyl]-2-(3-phenoxyphenyl)-5-[[[2-(2-pyridinyl)ethyl]amino]carbonyl]-1H-benzimidazole-1-acetamide]
4 | nr | 46% | 107% | – | 18% | 6.7 | 112% | 1000 nM | 325% | – | CN(CCc1ccccn1)C(=O)c1ccc2c(c1)nc(-c1cccc(Oc3ccccc3)c1)n2[C@@H](CCCNC(=N)N)C(N)=O [Compound 4, (α^1R)-α-[3-[(aminoiminomethyl)amino]propyl]-5-[[methyl[2-(2-pyridinyl)ethyl]amino]carbonyl]-2-(3-phenoxyphenyl)-1H-benzimidazole-1-acetamide]
5 | nr | 4% | – | – | – | – | – | – | 133% | 6.1 | COc1ccc(NC(=O)c2ccc3c(c2)nc(-c2cccc(Oc4ccccc4)c2)n3C(CCCNC(=N)N)C(N)=O)cc1 (stereo not drawn) [Compound 27]
6 | nr | 11% | – | – | – | – | – | – | 150% | 6.2 | CCCCNC(=O)c1ccc2c(c1)nc(-c1cccc(Oc3ccccc3)c1)n2C(CCCNC(=N)N)C(N)=O (stereo not drawn) [Compound 30]
7 | nr | 6% | – | – | – | – | – | – | 73% | 5.6 | N=C(N)NCCCC(C(N)=O)n1c(-c2cccc(Oc3ccccc3)c2)nc2cc(C(=O)Nc3nccs3)ccc21 (stereo not drawn) [Compound 31]
